Read-outs that look alike come from different tables or passages of the source.

Test [1] relates to Ramos. The experiment in a line: In vitro growth inhibition of Ramos B-cell lymphoma line. Conditions: read-out: IC50 of calicheamicin. In kind it is cell-based, human. The text has this: (§1) The effect of CMC-544 made by using CMA-676 and CMC-544 processes on the in vitro growth of CD22^+ B-Cell lymphoma cell lines, RL, Daudi, Raji and Ramos, were compared. An isotype-matched calicheamicin conjugate targeted at human CD33 (CMA-676) was used to reflect antigen-non-specific effects of the conjugate. […] CD22-mediated delivery of calicheamicin to the CD22^+ cells was at least 10 times more efficient in killing the target cells than the unconjugated drug itself. […] It is apparent from Table 4 that conjugate made by the CMC-544 conjugation process can generate equivalent cytotoxic effect at lower antibody concentrations than conjugate made by the CMA-676 conjugation process.

Test [2] has as its system Daudi. The experiment in a line: In vitro growth inhibition of Daudi B-cell lymphoma line. Conditions: Daudi #1; for IC50: read-out: IC50 of calicheamicin. In kind it is cell-based.
Description: as §1

Test [3] relates to RL NHL xenografts. Briefly: RL NHL xenografts staged to 300-400 mg in nude mice. In kind it is in vivo. Conditions: 160 μg/kg intraperitoneally. As for the experimental part:
Similar studies were carried out using the RL lymphoma model. […] CMC-544 in a dose-dependent manner caused tumors to regress over a 3-week time frame. The minimally effective dose of CMC-544 in the RL lymphoma model was established from statistical analyses of these studies to be 20 μg/kg based on calicheamicin content. There were no deaths in any of these three studies.
The observed anti-tumor efficacy was dose-dependent as expected and there was no difference in the efficacies of either of the two CMC-544 preparations. […] However, it should be emphasized that for each dose of conjugated calicheamicin, the quantity of antibody protein administered in the form of a conjugate was four times higher for CMC-544 made by the CMA-676 process versus that made by the CMC-544 process. Since the calicheamicin content of the targeted conjugate is primarily responsible for causing the anti-tumor effect, it is possible to deliver the required quantity of calicheamicin via the conjugate made by the new procedure using much smaller quantities of the targeting antibody. The increased loading of the conjugate made by the CMC-544 process is, in effect, due to the lack of significant amounts of the low conjugated fraction (LCF).

In test [4] the test system is Raji. The experiment in a line: In vitro growth inhibition of Raji B-cell lymphoma line. In kind it is cell-based. The note with it: for IC50: read-out: IC50 of calicheamicin.
Description: as §1

In test [5] the test system is RL. The experiment in a line: In vitro growth inhibition of RL B-cell lymphoma line. In kind it is cell-based. The note with it: for IC50: read-out: IC50 of calicheamicin.
Description: as §1

Test [6] relates to Ramos cells. Briefly: Disseminated RAMOS B lymphoma in SCID mice, developing model. In kind it is in vivo. As to the method: (§2) Male SCID mice (CB17 SCID), 20-25 g, were injected with […] through the tail vein (0.2 ml). […] For the day 3 treatment schedule, mice were dosed on days 3, 7, and 11. For the day 9 treatment schedule, mice were dosed on days 9, 13 and 17. […] Mice were monitored daily for the presence of hind limb paralysis at which time they were killed. Seven to 10 mice per treatment group were used. The group average survival time (±SD), median, minimum, and maximum survival times were all calculated. The difference in survival distribution between groups was determined by using a nonparametric Log-rank test with significance reported at the 0.05 level. The survival curves were constructed using the Kaplan-Meier method.
The initial study examined the effect of two different dosing schedules on survival times of the SCID mice with the disseminated lymphoma. The first study looked at initiating drug dosing 3 days after the tumor cells were injected intravenously (developing model), while the second study delayed drug dosing until 9 days post tumor cell injection (established model).

In test [7] the test system is large RAMOS lymphoma. The experiment in a line: Large established RAMOS lymphoma xenografts. In kind it is in vivo, nude mice. The note with it: 160 μg/kg ip, days 1, 5 and 9. As for the experimental part: The ability of CMC-544 made by the new procedure to inhibit growth of large established B-cell lymphoma xenografts using both the RAMOS and RL lymphoma models was also investigated. The tumors were allowed to grow and staged to 1.5 or 2 g of tumor mass after which CMC-544 or an isotype-matched negative control conjugate (CMA-676) were administered intraperitoneally at the dose of 160 μg/kg of conjugated calicheamicin keeping the original schedule of dosing on days 1, 5 and 9.
The same schedule of dosing was shown earlier to cause long lasting regression of small staged tumors (see Table 6).

The subject of test [8] is Ramos cells. Briefly: Disseminated RAMOS B lymphoma in SCID mice, established model. In kind it is in vivo. As to the method: as §2
The initial study examined the effect of two different dosing schedules on survival times of the SCID mice with the disseminated lymphoma. The first study looked at initiating drug dosing 3 days after the tumor cells were injected intravenously (developing model), while the second study delayed drug dosing until 9 days post tumor cell injection (established model). […]

Test [9] deals with CD22mFc. The experiment in a line: BIACORE biosensor binding analysis of CMC-544 and G5/44. The note with it: Table 3. As to the method: Biosensor analyses were carried out using a BIACORE™ 2000 (BIAcore AB, Uppsala, Sweden). CD22mFc was covalently immobilized on the N-hydroxysuccinimide-activated carboxymethyl dextran-coated biosensor chip (CM5) using a standard amine-coupling chemistry at a protein density of approximately 2000 resonance units. Samples of CMC-544 or G5/44 were diluted in the HBS buffer (10 mM HEPES, pH 7.4, containing 150 mM NaCl, 3 mM EDTA and 0.005% polysorbate 20 (v/v)) and injected in the concentration range of 1 to 100 nM over the CD22mFc-coated biosensor chip surface at a flow rate of 30 μl/min for 3 min to allow binding. After the binding phase, dissociation of the bound antibody was monitored by washing the chip with the HBS buffer over a 15 minute period. The antigenic surface was regenerated by washing the Biosensor chip with 15 μl of the regeneration buffer (10 mM NaOH and 200 mM NaCl) for 30 seconds, followed by a stabilization time of 2 minutes before the next cycle. Kinetic constants were calculated by nonlinear least square regression analysis using a 1:1 Langmuir binding curve fitting model and BIAevaluation program (version 3.0, BIAcore). The antigen binding of CMC-544 was evaluated by surface plasmon resonance analysis using CD22mFc covalently immobilized on a biosensor chip.

Test [10] has as its system CD22-mFc. Briefly: BIACORE affinity of chimeric 5/44 and its variants. In kind it is binding. Conditions: CDR-H2 mutants of chimeric 5/44. As for the experimental part:
The activities of the chimeric genes were evaluated following transient transfection into CHO cells and determination of affinity constants by BIACORE™ analysis.
The affinities of chimeric 5/44 or its variants, which have had their glycosylation site or their reactive lysine removed, were investigated using BIA technology for binding to CD22-mFc constructs. All binding measurements were performed in the BIACORE™ 2000 instrument (Pharmacia Biosensor AB, Uppsala, Sweden). The assay was performed by capture of CD22mFc via the immobilized anti-mouse Fc. The antibody was in the soluble phase. Samples, standard, and controls (50 μl) were injected over immobilized anti-mouse Fc followed by antibody in the soluble phase. After each cycle, the surface was regenerated with 50 μl of 40 mM HCl at 30 μl/min. The kinetic analysis was performed using the BIAevaluation 3.1 software (Pharmacia).
(In general: In SPR one partner is held on a chip, and binding of the other changes the refractive index at the surface.)

Test [11] concerns the target T1, cell surface CD22 (Homo sapiens, UniProt P20273).
T1 construct: host or cells: Ramos (Burkitt's lymphoma)
Briefly: Competition assay against mouse 5/44 antibody for binding to Ramos cells. Conditions: grafted variants expressed in CHO cells. From the text: The vectors encoding grafted variants were co-transfected into CHO cells in a variety of combinations, together with the original chimeric antibody chains. Binding activity was compared in a competition assay, competing the binding of the original mouse 5/44 antibody for binding to Ramos cells (obtained from ATCC, a Burkitt's lymphoma lymphoblast human cell line expressing surface CD22). This assay was considered the best way to compare the grafts in their ability to bind to cell surface CD22.

Setting [12] is: Table 8, conjugates 160 μg/kg, rituximab 20 mg/kg ip Q4Dx3 from day 3.
Setting [13] is: Table 8, conjugates 160 μg/kg, rituximab 20 mg/kg ip Q4Dx3 from day 9.

One may read the IC50 as the concentration that gives 50% inhibition. Consider `CCN(C(C)=O)[C@H]1CO[C@@H](O[C@H]2[C@H](O[C@H]3C#C/C=C\C#C[C@]4(O)CC(=O)C(NC(=O)OC)=C3/C4=C\CSSC(C)(C)CC(=O)NN)O[C@H](C)[C@@H](NO[C@H]3C[C@H](O)[C@H](SC(=O)c4c(C)c(I)c(O[C@@H]5O[C@@H](C)[C@H](O)[C@@H](OC)[C@H]5O)c(OC)c4OC)[C@@H](C)O3)[C@@H]2O)C[C@@H]1OC` [N-ACETYL GAMMA CALICHEAMICIN DMH, N-Ac gamma calicheamicin DMH, reference compound], for which the IC50 in [1] (Ramos #1) was 0.7 nM; in test [1] (Ramos #2), 1 nM; in [2] it was 0.26 nM; in test [4] (Raji #1) it was 0.46 nM; in test [4] (Raji #2), 0.49 nM; in test [5] (RL #1), 0.226 nM. For the same molecule, in test [5] (RL #2), the IC50 is 0.27 nM. For the same molecule, the “anti-tumor activity of unconjugated drug” value in test [3] is “inactive”.

In the case of “CMA-676: isotype-matched control conjugate of hP67.6 (IgG4, anti-CD33) with AcBut linked calicheamicin [reference compound]”, the “effect on survival time” value in test [6] (160 μg/kg ip Q4Dx3, p>0.05) is reported as “did not increase survival time significantly”. In [6] (setting [12]), the “Average Survival Time” value came out at 32.9 days, the “Maximum Survival Time” value is given as 36.0 days, the “Median Survival Time” value is recorded as 34.0 days and the “Minimum Survival Time” value was determined as 28.0 days. In addition, in test [7], the “effect on tumor growth” value is “no effect on the tumor growth” and the “mice sacrificed before day 15 because of tumor burden” value was “Four out of five”. In test [2], the IC50 of antibody was 53.89 µg/mL and the IC50 came out at 1.89 nM. In addition, the “effect on survival times” value in test [8] (160 μg/kg ip Q4Dx3) is listed as “no significant effect on survival times”. Moreover, in [8] (setting [13]), the “Average Survival Time” value worked out at 33.7 days, the “Maximum Survival Time” value is 42.0 days, the “Median Survival Time” value was determined as 31.0 days and the “Minimum Survival Time” value amounted to 30.0 days. Besides, in [4] (Raji #1), the IC50 of antibody is 80.00 µg/mL and the IC50 is 2.8 nM. In addition, in test [4] (Raji #2), the IC50 of antibody is 117.14 µg/mL and the IC50 is 4.1 nM. For the same molecule, in test [5] (RL #1), the IC50 of antibody was 17.14 µg/mL and the IC50 is 0.6 nM. For the same molecule, in test [5] (RL #2), the IC50 of antibody came out at 11.43 µg/mL and the IC50 was 0.4 nM.

As to CMC-544 (21 μg/mg) (CMA-676 procedure), in test [9], the “KA” value came out at 8.1e+09 M⁻¹, the “Ka” value came to 490000 M⁻¹ s⁻¹ and the “Kd” value was 6.1e-05 s⁻¹.

As for CMC-544 (87 μg/mg) (CMA-544 procedure), in [9], the “KA” value was 6.6e+09 M⁻¹, the “Ka” value stood at 460000 M⁻¹ s⁻¹ and the “Kd” value came to 6.9e-05 s⁻¹.

As to “CMC-544 PROCESS CMC-544 LOADING 65 μg/mg: CMC-544 made by the CMC-544 conjugation process”, the IC50 in test [1] (Ramos #2) came to 0.26 nM; in [2], 0.021 nM; in [4] (Raji #1) it was 0.5 nM; in test [4] (Raji #2) it was 0.56 nM; in [5] (RL #1), 0.006 nM; in test [5] (RL #2), 0.012 nM.

As for “CMC-676 PROCESS CMC-544 LOADING 35 μg/mg: CMC-544 made by the CMA-676 conjugation process”, the IC50 in [2] was determined as 0.08 nM; in test [4] (Raji #2), 0.52 nM; in test [5] (RL #1), 0.03 nM; in [5] (RL #2) it was 0.04 nM.

As for “K60R: chimeric 5/44 with CDR-H2 mutation K60R removing the reactive lysine”, in [10], the “effect of the mutation on affinity” value is on record as “neutral effect on affinity”.

As for “N55Q: chimeric 5/44 with CDR-H2 mutation N55Q removing the glycosylation site”, the “effect of the mutation on affinity” value in test [10] is listed as “no effect on affinity”.

B1: gH6: CDR-grafted 5/44 heavy chain graft gH6 (SEQ ID NO: 26) (antibody, V domains shown)
VH: EVQLVQSGAEVKKPGASVKVSCKASGYRFTNYWIHWVRQAPGQGLEWIGGINPGNNYATYRRKFQGRATLTADTSTSTVYMELSSLRSEDTAVYYCTREGYGNYGAWFAYWGQGTLVTVSS
modifications: gH6
In the case of B1, the “binding activity in competition with mouse 5/44” value in [11] is reported as “did not appear to have affected binding”.

B2: gH7: CDR-grafted 5/44 heavy chain graft gH7 (SEQ ID NO: 27) (antibody, V domains shown)
VH: EVQLVQSGAEVKKPGASVKVSCKASGYRFTNYWIHWVRQAPGQGLEWIGGINPGNNYATYRRKFQGRVTMTADTSTSTVYMELSSLRSEDTAVYYCTREGYGNYGAWFAYWGQGTLVTVSS
modifications: gH7
For B2, the “binding activity in competition with mouse 5/44” value in test [11] is recorded as “did not appear to have affected binding”.

The record behind these values is patent US9351986B2, “Calicheamicin derivative-carrier conjugates” (priority 2002, dated 2016).
